Data set [1] in a line: pH-dependent equilibrium solubility, saturation shake-flask method in Britton-Robinson buffers and 1 M NaOH. The data set is classed as physicochemical. Particulars: 37 °C; for solubility thermodynamic at 6 h: aqueous buffer, thermodynamic from solid, mean of 3, read-out: SpH ± SD.
Protocol: The saturation shake–flask method was used to determine the equilibrium solubility of the API [34, 35]. The measurements were carried out at 37 ± 0.1 °C. […] In case it was necessary, the pH was adjusted to the initial value with 1M NaOH solution after 1 h. The flasks were then placed in a GFL 1092 type shaking water bath (GFL GmbH, Burgwedel, Germany) and shaken at 150 rpm for 6 h. The agitation phase was followed by 18 h sedimentation at controlled temperature. A total of 3 aliquot (10–100 µL) samples were then taken from the saturated solution and diluted to the required extent (2–250x) with the tested medium. The concentration was measured by UV spectroscopy at λmax: 264 nm. […] In each medium, the solubility experiments were performed in triplicate.
Data set [2] can be described thus: Equilibrium solubility in biorelevant media, saturation shake-flask method. Format: physicochemical. To be noted: for solubility thermodynamic at 6 h: thermodynamic from solid, read-out: SpH ± SD; for increase in solubility: biorelevant media.
Protocol: The saturation shake–flask method was used to determine the equilibrium solubility of the API [34, 35]. The measurements were carried out at 37 ± 0.1 °C. […] In case it was necessary, the pH was adjusted to the initial value with 1M NaOH solution after 1 h. The flasks were then placed in a GFL 1092 type shaking water bath (GFL GmbH, Burgwedel, Germany) and shaken at 150 rpm for 6 h. The agitation phase was followed by 18 h sedimentation at controlled temperature. A total of 3 aliquot (10–100 µL) samples were then taken from the saturated solution and diluted to the required extent (2–250x) with the tested medium. The concentration was measured by UV spectroscopy at λmax: 264 nm. […] In each medium, the solubility experiments were performed in triplicate. […] The equilibrium solubility was also investigated in biorelevant media modelling gastric and small intestinal fluid in a fasted and fed state with and without solubilizing agents (pepsin or lecithin and bile acid salts). The tested biorelevant media were Blank FaSSGF, FaSSGF, Blank FaSSIF, FaSSIF, FeSSGF-acetate (without milk), Blank FeSSIF, and FeSSIF.
The conditions of data set [3]: literature data measured at 25 °C; cited from earlier work.

≈ marks a conversion by molar mass, not a printed value.

`CC(C)Cc1ccc(C(C)C(=O)O)cc1` (stereo not drawn) [ibuprofen]: the solubility thermodynamic at 6 h in data set [1] (BR (Britton-Robinson) buffer, pH 1.92 (nominal pH 2.0) BR buffer) was 70.8 ± 3 µg/mL (≈ 0.343 mM); in data set [1] (BR (Britton-Robinson) buffer, pH 3.96 BR buffer), 124 ± 13 µg/mL (≈ 0.601 mM); in data set [1] (BR (Britton-Robinson) buffer, pH 5.95 BR buffer) it was 1910 ± 70 µg/mL (≈ 9.26 mM); in data set [1] (BR (Britton-Robinson) buffer, pH 7.17 BR buffer), 32000 µg/mL (≈ 155 mM); in data set [1] (BR (Britton-Robinson) buffer, pH 8.02 BR buffer) it was 300000 µg/mL (≈ 1450 mM); in data set [1] (pH 14, 1 M NaOH), 734000 µg/mL (≈ 3560 mM). The solubility thermodynamic at 6 h was 194 ± 2 µg/mL (≈ 0.94 mM) in data set [2] (FeSSGF-acetate (without milk), fassgf or other biorelevant, FeSSGF-acetate, pH 4.5, 37 °C); 416 ± 12 µg/mL (≈ 2.02 mM) in data set [2] (fassgf or other biorelevant, FeSSIF blank, pH 5.0, 37 °C); 3160 ± 31 µg/mL (≈ 15.3 mM) in data set [2] (FaSSIF, pH 6.5, 37 °C); 2100 ± 56 µg/mL (≈ 10.2 mM) in data set [2] (FeSSIF, pH 5.0, 37 °C). For the same compound, the logSpH is −3.46 mol/L in data set [1] (pH 1.92 (nominal pH 2.0) BR buffer); −3.22 mol/L in data set [1] (pH 3.96 BR buffer); −2.03 mol/L in data set [1] (pH 5.95 BR buffer); −0.81 mol/L in data set [1] (pH 7.17 BR buffer); 0.16 mol/L in data set [1] (pH 8.02 BR buffer); 0.55 mol/L in data set [1] (pH 14, 1 M NaOH). The values for the increase in solubility in data set [2] (changing the pH from 1.6 to 4.5), in data set [2] (changing the pH from 1.6 to 5.0) and in data set [2] (changing the pH from 1.6 to 6.5) were 3.4 fold, 7.4 fold and 44.6 fold, respectively. In data set [2] (gastric pH), the “effect of pepsin on solubility” value was “no effect”. Further, in data set [3], the “intrinsic solubility logS0” value is recorded as −3.62.

These data come from PMC10051608, “Multi-Compartmental Dissolution Method, an Efficient Tool for the Development of Enhanced Bioavailability Formulations Containing Poorly Soluble Acidic Drugs” (Pharmaceutics, 2023).
